Test results: ChEMBL document CHEMBL3885861, “Open TG-GATES”

Organism: Rattus norvegicus
Assay: Open TG-GATES - Regimen: Daily Repeat
Format: toxicity, organism-based, Sprague-Dawley
Design: regimen Daily Repeat, gender Male, age 6 weeks
Conditions: in vivo, po, route gavage; for APTT / Bas / Eos / Fbg / Hb / Ht / Lym / MCH / MCHC / MCV / Mono / Neu / PT / Plat / RBC / Ret / WBC: tissue Blood; for KIDNEY_L / KIDNEY_R / KIDNEY_TOTAL: tissue Kidney; for LIVER: tissue Liver; for A/G / ALP / ALT / AST / BUN / CRE / Ca / Cl / DBIL / GLC / IP / K / LDH / Na / PL / RALB / TBIL / TC / TG / TP / gamma-GTP: tissue Plasma
[1] = 0 mg/kg, 72 h, dose level Control, time 3 day
[2] = 0 mg/kg, […], dose level Control, time 7 day
[3] = 0 mg/kg, […], dose level Control, time 14 day
[4] = 0 mg/kg, […], dose level Control, time 28 day
[5] = 100 mg/kg, 72 h, dose level Low, time 3 day
[6] = 100 mg/kg, […], dose level Low, time 7 day
[7] = 100 mg/kg, […], dose level Low, time 14 day
[8] = 100 mg/kg, […], dose level Low, time 28 day

CN/C(=N/CCSCc1nc[nH]c1C)NC#N [CIMETIDINE]
TERMINAL_BW [1]: 226.2 g
APTT [1]: 20.3 s
Bas [1]: 0.4%
Eos [1]: 0.6%
Fbg [1]: 220.2 mg/dL
Hb [1]: 13.5 g/dL
Ht [1]: 40.5%
Lym [1]: 84.6%
MCH [1]: 21 pg
MCHC [1]: 33.4%
MCV [1]: 63.1 fL
Mono [1]: 2.2%
Neu [1]: 11.2%
PT [1]: 12.7 s
Plat [1]: 132.2 x10_4/uL
RBC [1]: 642.2 x10_4/ul
Ret [1]: 6.3%
WBC [1]: 102.1 x10_2/uL
KIDNEY_L [1]: 1 g
KIDNEY_R [1]: 1 g
KIDNEY_TOTAL [1]: 2 g
LIVER [1]: 10.7 g
A/G [1]: 1.7
ALP [1]: 1069.6 IU/L
ALT [1]: 36.6 IU/L
AST [1]: 71 IU/L
BUN [1]: 14.4 mg/dL
CRE [1]: 0.4 mg/dL
Ca [1]: 10.7 mg/dL
Cl [1]: 102.8 meq/L
DBIL [1]: 0.1 mg/dL
GLC [1]: 198.2 mg/dL
IP [1]: 7.1 mg/dL
K [1]: 3.7 meq/L
LDH [1]: 150 IU/L
Na [1]: 141.2 meq/L
PL [1]: 158 mg/dL
RALB [1]: 3.5 g/dL
TBIL [1]: 0.2 mg/dL
TC [1]: 75.8 mg/dL
TG [1]: 103 mg/dL
TP [1]: 5.7 g/dL
gamma-GTP [1]: 1 IU/L
TERMINAL_BW [2]: 261.3 g
TERMINAL_BW [3]: 315.1 g
TERMINAL_BW [4]: 384.7 g
APTT [2]: 18.7 s
Bas [2]: 0.2%
Eos [2]: 0.6%
Fbg [2]: 228 mg/dL
Hb [2]: 14 g/dL
Ht [2]: 41.6%
Lym [2]: 80%
MCH [2]: 21.5 pg
MCHC [2]: 33.5%
MCV [2]: 64.2 fL
Mono [2]: 2.2%
Neu [2]: 15%
PT [2]: 12.1 s
Plat [2]: 129.9 x10_4/uL
RBC [2]: 649 x10_4/ul
Ret [2]: 5.8%
WBC [2]: 117.4 x10_2/uL
APTT [3]: 18.6 s
Bas [3]: 0%
Eos [3]: 0.8%
Fbg [3]: 218.6 mg/dL
Hb [3]: 14.3 g/dL
Ht [3]: 43.5%
Lym [3]: 79.2%
MCH [3]: 20 pg
MCHC [3]: 33%
MCV [3]: 60.7 fL
Mono [3]: 2.8%
Neu [3]: 16.8%
PT [3]: 12.1 s
Plat [3]: 129.1 x10_4/uL
RBC [3]: 717.8 x10_4/ul
Ret [3]: 4.6%
WBC [3]: 120.6 x10_2/uL
APTT [4]: 20.4 s
Bas [4]: 0%
Eos [4]: 1.2%
Fbg [4]: 205.8 mg/dL
Hb [4]: 15.1 g/dL
Ht [4]: 44.2%
Lym [4]: 79.2%
MCH [4]: 19.2 pg
MCHC [4]: 34.1%
MCV [4]: 56.4 fL
Mono [4]: 2.2%
Neu [4]: 16.6%
PT [4]: 12.9 s
Plat [4]: 99.1 x10_4/uL
RBC [4]: 784 x10_4/ul
Ret [4]: 2.6%
WBC [4]: 121.2 x10_2/uL
KIDNEY_L [2]: 1.1 g
KIDNEY_R [2]: 1.1 g
KIDNEY_TOTAL [2]: 2.1 g
KIDNEY_L [3]: 1.3 g
KIDNEY_R [3]: 1.2 g
KIDNEY_TOTAL [3]: 2.5 g
KIDNEY_L [4]: 1.5 g
KIDNEY_R [4]: 1.5 g
KIDNEY_TOTAL [4]: 2.9 g
LIVER [2]: 12.5 g
LIVER [3]: 14.1 g
LIVER [4]: 15.5 g
A/G [2]: 1.5
ALP [2]: 1067.6 IU/L
ALT [2]: 33.2 IU/L
AST [2]: 62.4 IU/L
BUN [2]: 16.6 mg/dL
CRE [2]: 0.4 mg/dL
Ca [2]: 10.7 mg/dL
Cl [2]: 103.2 meq/L
DBIL [2]: 0.1 mg/dL
GLC [2]: 236.6 mg/dL
IP [2]: 8 mg/dL
K [2]: 3.9 meq/L
LDH [2]: 165.2 IU/L
Na [2]: 141.2 meq/L
PL [2]: 156.4 mg/dL
RALB [2]: 3.4 g/dL
TBIL [2]: 0.2 mg/dL
TC [2]: 73.6 mg/dL
TG [2]: 138.8 mg/dL
TP [2]: 5.7 g/dL
gamma-GTP [2]: 1 IU/L
A/G [3]: 1.4
ALP [3]: 861.4 IU/L
ALT [3]: 41.4 IU/L
AST [3]: 72.8 IU/L
BUN [3]: 17 mg/dL
CRE [3]: 0.4 mg/dL
Ca [3]: 10.6 mg/dL
Cl [3]: 102.6 meq/L
DBIL [3]: 0.1 mg/dL
GLC [3]: 215.2 mg/dL
IP [3]: 7.4 mg/dL
K [3]: 4.1 meq/L
LDH [3]: 169.6 IU/L
Na [3]: 141.4 meq/L
PL [3]: 155.6 mg/dL
RALB [3]: 3.4 g/dL
TBIL [3]: 0.2 mg/dL
TC [3]: 70.8 mg/dL
TG [3]: 168.4 mg/dL
TP [3]: 5.9 g/dL
gamma-GTP [3]: 1 IU/L
A/G [4]: 1.2
ALP [4]: 772.6 IU/L
ALT [4]: 31 IU/L
AST [4]: 59.6 IU/L
BUN [4]: 16.2 mg/dL
CRE [4]: 0.5 mg/dL
Ca [4]: 10.1 mg/dL
Cl [4]: 102.4 meq/L
DBIL [4]: 0.1 mg/dL
GLC [4]: 235.6 mg/dL
IP [4]: 6.6 mg/dL
K [4]: 3.6 meq/L
LDH [4]: 151.6 IU/L
Na [4]: 140.6 meq/L
PL [4]: 137.4 mg/dL
RALB [4]: 3.3 g/dL
TBIL [4]: 0.2 mg/dL
TC [4]: 61.8 mg/dL
TG [4]: 119.8 mg/dL
TP [4]: 6 g/dL
gamma-GTP [4]: 1 IU/L
TERMINAL_BW [5]: 228.3 g
APTT [5]: 18 s
Bas [5]: 0.2%
Eos [5]: 1%
Fbg [5]: 220 mg/dL
Hb [5]: 12.8 g/dL
Ht [5]: 38.6%
Lym [5]: 77.6%
MCH [5]: 21.1 pg
MCHC [5]: 33.2%
MCV [5]: 63.6 fL
Mono [5]: 2.6%
Neu [5]: 17.4%
PT [5]: 12.6 s
Plat [5]: 127.7 x10_4/uL
RBC [5]: 607 x10_4/ul
Ret [5]: 6.9%
WBC [5]: 97.9 x10_2/uL
KIDNEY_L [5]: 1 g
KIDNEY_R [5]: 1 g
KIDNEY_TOTAL [5]: 2 g
LIVER [5]: 10.7 g
A/G [5]: 1.5
ALP [5]: 1125.6 IU/L
ALT [5]: 37 IU/L
AST [5]: 66.4 IU/L
BUN [5]: 14.8 mg/dL
CRE [5]: 0.4 mg/dL
Ca [5]: 10.9 mg/dL
Cl [5]: 103.2 meq/L
DBIL [5]: 0.1 mg/dL
GLC [5]: 195.6 mg/dL
IP [5]: 7.1 mg/dL
K [5]: 4.2 meq/L
LDH [5]: 137.8 IU/L
Na [5]: 140.8 meq/L
PL [5]: 155.8 mg/dL
RALB [5]: 3.4 g/dL
TBIL [5]: 0.2 mg/dL
TC [5]: 78.6 mg/dL
TG [5]: 109.8 mg/dL
TP [5]: 5.6 g/dL
gamma-GTP [5]: 1.2 IU/L
TERMINAL_BW [6]: 260 g
TERMINAL_BW [7]: 308.9 g
TERMINAL_BW [8]: 402.8 g
APTT [6]: 18.3 s
Bas [6]: 0.2%
Eos [6]: 0.8%
Fbg [6]: 227.6 mg/dL
Hb [6]: 13.5 g/dL
Ht [6]: 40.3%
Lym [6]: 81.6%
MCH [6]: 20.8 pg
MCHC [6]: 33.4%
MCV [6]: 62.2 fL
Mono [6]: 2%
Neu [6]: 14.6%
PT [6]: 12.2 s
Plat [6]: 126 x10_4/uL
RBC [6]: 648.2 x10_4/ul
Ret [6]: 5.4%
WBC [6]: 111.1 x10_2/uL
APTT [7]: 19.3 s
Bas [7]: 0%
Eos [7]: 1%
Fbg [7]: 219.2 mg/dL
Hb [7]: 14.4 g/dL
Ht [7]: 43.9%
Lym [7]: 83.8%
MCH [7]: 19.5 pg
MCHC [7]: 32.8%
MCV [7]: 59.5 fL
Mono [7]: 2.2%
Neu [7]: 13%
PT [7]: 12.7 s
Plat [7]: 120.2 x10_4/uL
RBC [7]: 737.8 x10_4/ul
Ret [7]: 3.9%
WBC [7]: 93.7 x10_2/uL
APTT [8]: 19.7 s
Bas [8]: 0.2%
Eos [8]: 1.2%
Fbg [8]: 217.4 mg/dL
Hb [8]: 14.6 g/dL
Ht [8]: 42.3%
Lym [8]: 79.4%
MCH [8]: 19.2 pg
MCHC [8]: 34.5%
MCV [8]: 55.8 fL
Mono [8]: 2.8%
Neu [8]: 15.6%
PT [8]: 12.9 s
Plat [8]: 114 x10_4/uL
RBC [8]: 758.2 x10_4/ul
Ret [8]: 2.8%
WBC [8]: 137.9 x10_2/uL
KIDNEY_L [6]: 1.1 g
KIDNEY_R [6]: 1.1 g
KIDNEY_TOTAL [6]: 2.2 g
KIDNEY_L [7]: 1.2 g
KIDNEY_R [7]: 1.3 g
KIDNEY_TOTAL [7]: 2.5 g
KIDNEY_L [8]: 1.4 g
KIDNEY_R [8]: 1.4 g
KIDNEY_TOTAL [8]: 2.8 g
LIVER [6]: 13 g
LIVER [7]: 13.9 g
LIVER [8]: 17.6 g
A/G [6]: 1.5
ALP [6]: 831 IU/L
ALT [6]: 34.8 IU/L
AST [6]: 64.2 IU/L
BUN [6]: 16.6 mg/dL
CRE [6]: 0.4 mg/dL
Ca [6]: 10.7 mg/dL
Cl [6]: 102 meq/L
DBIL [6]: 0.096 mg/dL
GLC [6]: 252.8 mg/dL
IP [6]: 7.8 mg/dL
K [6]: 4 meq/L
LDH [6]: 155 IU/L
Na [6]: 139.6 meq/L
PL [6]: 161 mg/dL
RALB [6]: 3.3 g/dL
TBIL [6]: 0.1 mg/dL
TC [6]: 78.8 mg/dL
TG [6]: 121 mg/dL
TP [6]: 5.6 g/dL
gamma-GTP [6]: 1.2 IU/L
A/G [7]: 1.4
ALP [7]: 969.6 IU/L
ALT [7]: 42 IU/L
AST [7]: 74.8 IU/L
BUN [7]: 17.6 mg/dL
CRE [7]: 0.4 mg/dL
Ca [7]: 10.5 mg/dL
Cl [7]: 102 meq/L
DBIL [7]: 0.1 mg/dL
GLC [7]: 205.2 mg/dL
IP [7]: 7.1 mg/dL
K [7]: 4 meq/L
LDH [7]: 210.8 IU/L
Na [7]: 141.4 meq/L
PL [7]: 142.2 mg/dL
RALB [7]: 3.4 g/dL
TBIL [7]: 0.2 mg/dL
TC [7]: 62.8 mg/dL
TG [7]: 137.8 mg/dL
TP [7]: 5.9 g/dL
gamma-GTP [7]: 0.8 IU/L
A/G [8]: 1.4
ALP [8]: 672 IU/L
ALT [8]: 35.4 IU/L
AST [8]: 66.4 IU/L
BUN [8]: 18.6 mg/dL
CRE [8]: 0.6 mg/dL
Ca [8]: 10.3 mg/dL
Cl [8]: 101.6 meq/L
DBIL [8]: 0.1 mg/dL
GLC [8]: 264.2 mg/dL
IP [8]: 6.9 mg/dL
K [8]: 3.5 meq/L
LDH [8]: 186 IU/L
Na [8]: 140.4 meq/L
PL [8]: 150.8 mg/dL
RALB [8]: 3.5 g/dL
TBIL [8]: 0.2 mg/dL
TC [8]: 70.2 mg/dL
TG [8]: 167.4 mg/dL
TP [8]: 6 g/dL
gamma-GTP [8]: 1.2 IU/L
